Measurements as given in patent US8415469B2, “Compounds and methods for kinase modulation, and indications therefor” (Plexxikon Inc., priority 2005, dated 2013).

Key:
Type in all cases: biochemical
Jnk1 = biological target: T1, Jnk1 (Homo sapiens, UniProt P45983); assay: AlphaScreen kinase assay, Jnk1; details: read-out: IC50, activity toward kinase Jnk1
T1 construct: purchased Upstate Biotechnology

Akt3 = Akt3 (Homo sapiens, UniProt Q9Y243); assay: AlphaScreen kinase assay, Akt3; details: read-out: IC50, activity toward kinase Akt3
Procedure, shortened: (§1)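 AlphaScreen, biotin-peptide substrate; streptavidin donor/anti-phospho acceptor beads; decreased emission = inhibition. Cpds 20 mM DMSO stock, 1:3 x 8 conc.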

c-Raf-1 = biological target: T2, c-Raf-1 (Homo sapiens, UniProt P04049); assay: AlphaScreen kinase assay, c-Raf-1; details: read-out: IC50, activity toward kinase c-Raf-1
T2 construct: purchased Upstate Biotechnology

Stk6 = biological target: T3, Stk6 (Homo sapiens, UniProt O14965); assay: Z'-Lyte FRET kinase assay (Invitrogen), Stk6; details: read-out: IC50, activity toward kinase Stk6
T3 construct: purchased Invitrogen (Carlsbad, Calif.), screening service
T3 sequence (O14965 1-403): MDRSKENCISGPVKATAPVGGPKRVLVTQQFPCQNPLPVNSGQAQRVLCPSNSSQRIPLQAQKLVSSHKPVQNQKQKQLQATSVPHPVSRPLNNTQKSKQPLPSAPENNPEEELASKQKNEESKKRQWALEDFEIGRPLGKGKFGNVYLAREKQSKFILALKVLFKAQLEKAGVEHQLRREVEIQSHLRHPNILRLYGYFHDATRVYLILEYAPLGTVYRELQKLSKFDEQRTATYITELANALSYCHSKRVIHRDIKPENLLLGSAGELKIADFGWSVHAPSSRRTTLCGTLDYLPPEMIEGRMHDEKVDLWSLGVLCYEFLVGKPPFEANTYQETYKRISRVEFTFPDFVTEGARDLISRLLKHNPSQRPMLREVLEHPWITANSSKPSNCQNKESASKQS

Fak = biological target: T4, Fak (Homo sapiens, UniProt Q05397); assay: AlphaScreen kinase assay, Fak; details: read-out: IC50, activity toward kinase Fak
T4 construct: P1358.pFastBacHtb FAK S411-Q686-X; His6 with pFastBacHTb leader (TEV site) (N); made in house; host or cells: Sf9 (baculovirus)

Met = biological target: T5, Met (Homo sapiens, UniProt P08581); assay: AlphaScreen kinase assay, Met; details: read-out: IC50, activity toward kinase Met
T5 construct: P1818.pETN6 BI-PTP MET G1056-G1364-X WT; His6 (N); made in house; host or cells: E. coli (PTP1B co-expressed)
Procedure, shortened: as §1

Abl = biological target: T6, Abl (Homo sapiens, UniProt P00519); assay: AlphaScreen kinase assay, Abl; details: read-out: activity toward kinase Abl, IC50
T6 construct: P1121. pET-SPEC BI-PTP Abl G227-V515-X; His6 (N); made in house; host or cells: E. coli (PTP1B co-expressed)
T6 sequence (P00519 with tags, fused parts or gaps): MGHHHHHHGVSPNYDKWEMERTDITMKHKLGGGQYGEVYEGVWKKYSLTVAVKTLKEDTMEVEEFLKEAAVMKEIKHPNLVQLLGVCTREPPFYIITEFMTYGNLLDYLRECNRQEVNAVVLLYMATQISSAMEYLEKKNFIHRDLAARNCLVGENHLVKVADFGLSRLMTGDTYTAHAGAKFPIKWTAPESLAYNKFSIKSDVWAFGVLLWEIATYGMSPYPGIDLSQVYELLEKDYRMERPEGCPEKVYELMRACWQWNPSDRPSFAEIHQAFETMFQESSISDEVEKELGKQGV
Procedure, shortened: as §1

PKC theta = biological target: T7, PKC theta (Homo sapiens, UniProt Q04759); assay: Z'-Lyte FRET kinase assay (Invitrogen), PKC theta; details: read-out: IC50, activity toward kinase PKC theta
T7 construct: purchased Invitrogen (Carlsbad, Calif.), screening service
Procedure, shortened: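 Serially diluted compound (1% DMSO final) is mixed with kinase plus 2 μM peptide substrate in pH 7.5 HEPES buffer, then ATP is added to 10 μM. After 1 h at room temperature, site-specific protease is added for another hour, reactions are stopped and fluorescence ratio measured.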

Measured: IC50

Chain of Akt3 (Q9Y243 whole entry): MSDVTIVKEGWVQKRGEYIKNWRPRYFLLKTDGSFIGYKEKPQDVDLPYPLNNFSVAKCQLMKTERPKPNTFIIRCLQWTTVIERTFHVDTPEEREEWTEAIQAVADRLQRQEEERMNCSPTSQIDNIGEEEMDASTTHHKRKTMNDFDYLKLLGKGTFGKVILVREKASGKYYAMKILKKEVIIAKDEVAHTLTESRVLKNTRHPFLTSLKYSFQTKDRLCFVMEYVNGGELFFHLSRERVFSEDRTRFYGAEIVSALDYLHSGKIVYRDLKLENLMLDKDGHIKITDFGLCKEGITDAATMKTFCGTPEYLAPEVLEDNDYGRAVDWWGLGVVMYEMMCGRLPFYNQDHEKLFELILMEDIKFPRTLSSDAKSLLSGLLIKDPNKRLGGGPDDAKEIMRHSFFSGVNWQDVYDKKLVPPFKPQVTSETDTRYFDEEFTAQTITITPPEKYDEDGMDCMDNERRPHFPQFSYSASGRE
T4 sequence (Q05397 411-686): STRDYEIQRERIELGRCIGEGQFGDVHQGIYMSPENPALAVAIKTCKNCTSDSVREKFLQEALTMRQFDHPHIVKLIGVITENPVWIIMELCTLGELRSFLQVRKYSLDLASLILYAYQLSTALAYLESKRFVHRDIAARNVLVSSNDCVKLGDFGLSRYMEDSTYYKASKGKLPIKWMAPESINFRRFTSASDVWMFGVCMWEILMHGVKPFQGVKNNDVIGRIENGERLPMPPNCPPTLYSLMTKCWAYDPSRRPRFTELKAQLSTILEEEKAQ
T2 sequence (P04049 whole entry): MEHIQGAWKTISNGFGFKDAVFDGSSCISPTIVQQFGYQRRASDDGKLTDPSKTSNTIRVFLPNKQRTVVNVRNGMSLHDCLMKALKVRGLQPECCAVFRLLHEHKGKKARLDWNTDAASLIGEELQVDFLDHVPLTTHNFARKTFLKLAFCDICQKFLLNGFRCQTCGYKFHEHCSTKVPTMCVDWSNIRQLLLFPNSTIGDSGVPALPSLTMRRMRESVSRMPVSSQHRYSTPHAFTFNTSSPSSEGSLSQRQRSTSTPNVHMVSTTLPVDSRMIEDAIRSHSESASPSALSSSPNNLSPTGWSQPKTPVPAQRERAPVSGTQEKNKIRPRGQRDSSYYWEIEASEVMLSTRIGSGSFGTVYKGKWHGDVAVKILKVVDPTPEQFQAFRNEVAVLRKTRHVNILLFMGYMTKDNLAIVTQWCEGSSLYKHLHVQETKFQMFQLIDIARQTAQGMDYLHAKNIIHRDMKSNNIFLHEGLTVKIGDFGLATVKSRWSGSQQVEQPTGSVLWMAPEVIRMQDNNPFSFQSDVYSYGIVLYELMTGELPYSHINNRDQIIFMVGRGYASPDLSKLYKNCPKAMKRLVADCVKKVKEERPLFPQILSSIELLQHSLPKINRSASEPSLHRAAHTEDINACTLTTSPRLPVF
T5 sequence (P08581 with tags, fused parts or gaps): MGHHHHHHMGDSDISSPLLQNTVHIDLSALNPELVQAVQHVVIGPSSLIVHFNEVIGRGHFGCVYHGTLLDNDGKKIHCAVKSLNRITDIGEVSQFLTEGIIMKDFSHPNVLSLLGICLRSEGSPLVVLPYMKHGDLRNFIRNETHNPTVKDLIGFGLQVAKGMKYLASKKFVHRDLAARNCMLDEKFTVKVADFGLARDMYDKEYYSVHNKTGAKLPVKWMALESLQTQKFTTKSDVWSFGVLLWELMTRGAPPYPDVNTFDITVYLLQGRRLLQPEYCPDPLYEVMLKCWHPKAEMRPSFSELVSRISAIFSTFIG
T1 sequence (P45983 whole entry): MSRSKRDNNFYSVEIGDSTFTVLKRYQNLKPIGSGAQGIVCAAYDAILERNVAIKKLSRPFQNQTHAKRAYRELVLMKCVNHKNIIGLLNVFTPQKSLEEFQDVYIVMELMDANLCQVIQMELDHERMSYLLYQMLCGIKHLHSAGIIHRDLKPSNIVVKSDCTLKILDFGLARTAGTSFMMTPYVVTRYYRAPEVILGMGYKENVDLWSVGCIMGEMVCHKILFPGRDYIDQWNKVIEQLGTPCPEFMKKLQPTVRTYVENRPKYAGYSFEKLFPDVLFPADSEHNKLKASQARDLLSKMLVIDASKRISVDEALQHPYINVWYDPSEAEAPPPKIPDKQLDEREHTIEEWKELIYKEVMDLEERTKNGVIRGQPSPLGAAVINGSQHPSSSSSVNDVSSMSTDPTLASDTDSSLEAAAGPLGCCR
T7 sequence (Q04759 whole entry): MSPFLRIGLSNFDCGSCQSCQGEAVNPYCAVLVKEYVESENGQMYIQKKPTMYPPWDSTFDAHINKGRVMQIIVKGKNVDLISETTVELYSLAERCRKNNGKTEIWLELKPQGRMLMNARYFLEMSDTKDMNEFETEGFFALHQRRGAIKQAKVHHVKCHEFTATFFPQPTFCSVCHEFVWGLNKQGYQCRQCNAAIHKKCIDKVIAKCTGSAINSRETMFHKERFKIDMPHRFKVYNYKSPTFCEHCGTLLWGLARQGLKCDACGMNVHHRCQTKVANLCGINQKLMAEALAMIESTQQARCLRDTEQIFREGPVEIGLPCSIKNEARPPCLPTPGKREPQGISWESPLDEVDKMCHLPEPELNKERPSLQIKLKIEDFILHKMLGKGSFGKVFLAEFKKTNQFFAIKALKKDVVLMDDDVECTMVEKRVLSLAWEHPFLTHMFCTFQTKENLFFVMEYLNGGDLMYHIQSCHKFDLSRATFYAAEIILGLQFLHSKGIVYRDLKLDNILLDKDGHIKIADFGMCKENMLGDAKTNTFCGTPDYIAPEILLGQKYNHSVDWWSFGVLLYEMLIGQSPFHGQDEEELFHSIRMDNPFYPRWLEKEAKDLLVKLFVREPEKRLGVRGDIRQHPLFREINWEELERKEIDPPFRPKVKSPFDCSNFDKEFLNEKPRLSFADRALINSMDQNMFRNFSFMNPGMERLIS

CC(=O)Nc1cccc(-c2cnc3[nH]cc(C(=O)c4cccc(O)c4F)c3c2)c1 [Compound P-0035, N-{3-[3-(2-Fluoro-3-hydroxy-benzoyl)-1H-pyrrolo[2,3-b]pyridin-5-yl]-phenyl}-acetamide]
not listed: Abl | PKC theta
≤ 10 µM: all other assays above

Cc1c(NS(C)(=O)=O)cccc1C(=O)c1c[nH]c2ncc(-c3ccccc3)cc12 [Compound P-0082, N-[2-Methyl-3-(5-phenyl-1H-pyrrolo[2,3-b]pyridine-3-carbonyl)-phenyl]-methanesulfonamide]
≤ 10 µM: Jnk1 | c-Raf-1 | Stk6 | Met

Cc1ccc(S(=O)(=O)NCc2c[nH]c3ncccc23)cc1 [Compound P-0058]
≤ 10 µM: Akt3 | Stk6 | Met | Abl

NC(=O)c1ccc(-c2ccnc3[nH]cc(C(=O)c4ccccc4F)c23)cc1 [Compound P-0014]
≤ 10 µM: PKC theta | Stk6

O=C(c1cccc(O)c1)c1c[nH]c2nccc(-c3cc(F)cc(F)c3)c12 [Compound P-0039]
≤ 10 µM: PKC theta

Cc1ccccc1C(=O)c1c[nH]c2nccc(-c3cccc(NS(C)(=O)=O)c3)c12 [Compound P-0109]
≤ 10 µM: PKC theta

Oc1ccc(F)c(C(O)c2c[nH]c3ncc(-c4cccnc4)cc23)c1F (stereo not shown) [Compound P-0009, 2,4-difluoro-3-[hydroxy-(5-pyridin-3-yl-1H-pyrrolo[2,3-b]pyridin-3-yl)-methyl]-phenol]
≤ 10 µM: Jnk1 | c-Raf-1 | Stk6 | Fak | Met

OC(c1c(F)ccc(F)c1F)c1c[nH]c2ncc(-c3cccnc3)cc12 (stereo not shown) [Compound P-0101]
≤ 10 µM: Stk6 | Met

Nc1cccc(-c2ccnc3[nH]cc(C(=O)c4cc(F)ccc4F)c23)c1 [Compound P-0046]
≤ 10 µM: PKC theta | Stk6

Cc1c(O)cccc1C(=O)c1c[nH]c2ncc(-c3cccs3)cc12 [Compound P-0114, (3-Hydroxy-2-methyl-phenyl)-(5-thiophen-2-yl-1H-pyrrolo[2,3b]pyridin-3-yl)-methanone]
≤ 10 µM: Jnk1 | Akt3 | c-Raf-1 | Fak | Met

Oc1cccc(Cc2c[nH]c3ncc(-c4cccs4)cc23)c1F [Compound P-0052, 2-Fluoro-3-(5-thiophen-2-yl-1H-pyrrolo[2,3-b]pyridin-3-ylmethyl)-phenol]
≤ 10 µM: Jnk1 | c-Raf-1 | Stk6 | Met

O=C(c1ccccc1F)c1c[nH]c2nccc(-c3ccsc3)c12 [Compound P-0051]
≤ 10 µM: PKC theta | Stk6

Cc1c(O)cccc1C(=O)c1c[nH]c2ncc(-c3ccccc3)cc12 [Compound P-0016, (3-Hydroxy-2-methyl-phenyl)-(5-phenyl-1H-pyrrolo[2,3b]pyridin-3-yl)-methanone]
≤ 10 µM: Jnk1 | c-Raf-1 | Fak | Met

COc1ccc(C(=O)c2c[nH]c3ncc(-c4cccc(/C=C/C(=O)O)c4)cc23)c(Cl)c1 [Compound P-0015]
≤ 10 µM: Jnk1 | c-Raf-1 | Stk6 | Met

O=C(c1cccc(O)c1F)c1c[nH]c2ncc(-c3cccnc3)cc12 [Compound P-0027, (2-Fluoro-3-hydroxy-phenyl)-(5-pyridin-3-yl-1H-pyrrolo[2,3-b]pyridin-3-yl)-methanone]
≤ 10 µM: Jnk1 | Akt3 | c-Raf-1 | Fak | Met

Nc1cccc(-c2ccnc3[nH]cc(C(=O)c4ccccc4F)c23)c1 [Compound P-0022]
≤ 10 µM: PKC theta | Stk6

Cn1cc(C(F)(F)F)c(-c2ccc(S(=O)(=O)NCc3c[nH]c4ncccc34)s2)n1 [Compound P-0041]
≤ 10 µM: Akt3 | Stk6 | Met | Abl

CCCC(=O)Nc1ccc(F)c(Cc2c[nH]c3ncc(-c4cccnc4)cc23)c1F [Compound P-1280]
≤ 10 µM: Jnk1 | Stk6 | Fak | Met

O=C(Nc1ccc(Cc2c[nH]c3ncccc23)cc1)Nc1cccc(C(F)(F)F)c1 [Compound P-0262, 1-[4-(1H-Pyrrolo[2,3-b]pyridin-3-ylmethyl)-phenyl]-3-(3-trifluoromethyl-phenyl)-urea]
≤ 10 µM: c-Raf-1 | Met

CC(=O)Nc1cccc(-c2ccnc3[nH]cc(C(=O)c4ccccc4F)c23)c1 [Compound P-0070]
≤ 10 µM: PKC theta | Stk6

O=C(c1cc(F)ccc1F)c1c[nH]c2nccc(-c3cccnc3)c12 [Compound P-0063]
≤ 10 µM: PKC theta | Stk6

Cc1ccc(F)cc1C(=O)c1c[nH]c2ncc(-c3cccc(NS(C)(=O)=O)c3)cc12 [Compound P-0028]
≤ 10 µM: Met | Abl

Cc1ccccc1C(=O)c1c[nH]c2nccc(-c3ccc(C(N)=O)cc3)c12 [Compound P-0017]
≤ 10 µM: PKC theta

NC(=O)c1cccc(-c2cnc3[nH]cc(C(=O)c4cccc(O)c4F)c3c2)c1 [Compound P-0034, 3-[3-(2-Fluoro-3-hydroxy-benzoyl)-1H-pyrrolo[2,3-b]pyridin-5-yl]benzamide]
≤ 10 µM: Jnk1 | Akt3 | c-Raf-1 | Fak | Met

Oc1ccc(F)c(Cc2c[nH]c3ncc(-c4cccnc4)cc23)c1F [Compound P-0078, 2,4-difluoro-3-(5-pyridin-3-yl-1H-pyrrolo[2,3-b]pyridin-3-ylmethyl)-phenol]
≤ 10 µM: Jnk1 | c-Raf-1 | Fak | Met

CS(=O)(=O)Nc1cccc(-c2cnc3[nH]cc(C(=O)c4cccc(O)c4F)c3c2)c1 [Compound P-0038, N-{3-[3-(2-Fluoro-3-hydroxy-benzoyl)-1H-pyrrolo[2,3-b]pyridin-5-yl]-phenyl}-methanesulfonamide]
≤ 10 µM: Jnk1 | Akt3 | c-Raf-1 | Met

OCCOc1ccc(F)c(Cc2c[nH]c3ncc(-c4cccnc4)cc23)c1F [Compound P-1394, 2-[2,4-Difluoro-3-(5-pyridin-3-yl-1H-pyrrolo[2,3-b]pyridin-3-ylmethyl)-phenoxy]-ethanol]
≤ 10 µM: Jnk1 | Stk6 | Fak | Met | Abl
